Measurements as given in EP0417840B1, “Antiviral tetrahydroimidazo [1,4]-benzodiazepines” (JANSSEN PHARMACEUTICA N.V., priority 1989, dated 1991).
In brackets after ≈: the same amount, converted by molar mass.

How the values were obtained:
[1] = system: HIV; assay: Anti-HIV assay: inhibition of the HIV-induced cytopathic effect in MT-4 cells (MTT); type: cell-based; details: for EC50: Human immunodeficiency virus 1, MT4, dose achieving 50% protection of HIV-infected MT-4 cells, MTT, 540 nm, read-out: ED₅₀ (50% effective dose); for SI (selectivity index): ratio of CD₅₀ to ED₅₀
Method: (§1) A rapid, sensitive and automated assay procedure was used for the in-vitro evaluation of anti-HIV agents. An […] T4-cell line, MT-4, which was previously shown (Koyanagi et al., Int. J. Cancer, 36, 445-451, 1985) to be highly susceptible to and permissive for HIV infection, served as the target cell line. Inhibition of the HIV-induced cytopathic effect was used as the end point. The viability of both HIV- and mock-infected cells was assessed spectrophotometrically via the in-situ reduction of 3-(4,5-dimethylthiazol-2-yl)-2,5-diphenyltetrazolium bromide (MTT). The 50% cytotoxic dose (CD₅₀ in µg/ml) was defined as the concentration of compound that reduced the absorbance of the mock-infected control sample by 50%. The percent protection achieved by the compound in HIV-infected cells was calculated by the following formula: [formula] whereby (ODT)HIV is the optical density measured with a given concentration of the test compound in HIV-infected cells; (ODC)HIV is the optical density measured for the control untreated HIV-infected cells; (ODC)MOCK is the optical density measured for the control untreated mock-infected cells; all optical density values were determined at 540 nm. The dose achieving 50% protection according to the above formula was defined as the 50% effective dose (ED₅₀ in µg/ml). The ratio of CD₅₀ to ED₅₀ was defined as the selectivity index (SI).

[2] = in vitro; type: cell-based; details: human, mt-4 cells
Method: as §1

With CC(C)=CCN1[C@H](C)Cn2c(=S)[nH]c3cccc(c32)[C@@H]1C (relative stereo) [Compound 5, cis-4,5,6,7-tetrahydro-5,7-dimethyl-6-(3-methyl-2-butenyl)imidazo[4,5,1-jk][1,4]benzodiazepine-2(1H)thione] the EC50 [1] was 0.24 µg/mL (≈ 0.796 µM), the “SI (selectivity index)” value [1] was 96 and the CC50 [2] was 23 µg/mL (≈ 76.3 µM).

With CC(C)=CCN1[C@H](C)Cn2c(=S)[nH]c3cccc(c32)[C@H]1C (relative stereo) [Compound 6, trans-4,5,6,7-tetrahydro-5,7-dimethyl-6-(3-methyl-2-butenyl)imidazo[4,5,1-jk][1,4]benzodiazepine-2(1H)-thione] the EC50 [1] was 0.0048 µg/mL (≈ 0.0159 µM), the “SI (selectivity index)” value [1] was 4838 and the CC50 [2] was 23 µg/mL (≈ 76.3 µM).

For CC(C)=CCN1CCn2c(=S)[nH]c3cccc(c32)C1C (stereo not drawn) [Compound 3], the EC50 [1] was 0.1 µg/mL (≈ 0.348 µM), the “SI (selectivity index)” value [1] was 1770 and the CC50 [2] was 177 µg/mL (≈ 616 µM).

For CCCN1CCn2c(=S)[nH]c3cccc(c32)C1C (stereo not drawn) [Compound 2, 4,5,6,7-tetrahydro-7-methyl-6-propylimidazo[4,5,1-jk] [1,4]benzodiazepin-2(1H)-thione], the EC50 [1] was 0.5 µg/mL (≈ 1.91 µM), the “SI (selectivity index)” value [1] was 258 and the CC50 [2] was 129 µg/mL (≈ 494 µM).
